Results as given in patent publication US9073975B2, “Cyclic peptides, their preparation and their use as inhibitors of the platelet adhesion” (SANOFI, priority 2010, dated 2015).
Starred links: 1 amine or outer side, 2 acyl side, 3 side chain; linkers in the order of their positions; H or OH if unused. Positions of bridges follow the written chain, without caps; N, C: chain ends. Non-standard residues stand in square brackets, D forms with d. Residues, ends and D or L forms follow the SMILES beside them. ξ: configuration not given here. X1 = CSCC[C@H](NN[C@@H](CCCNC(=N)N)C(=O)C(=O)[C@H](CCC(=O)O)N[*:2])C(=O)[*:1]; NHCH2(1,3-C6H4)CH2CO = O=C(Cc1cccc(CN[*:1])c1)[*:2]; X3 = O=C(Cc1ccc(CN[*:1])cc1)[*:2]; Cha = N[C@@H](CC1CCCCC1)C(=O)O; Chg = N[C@H](C(=O)O)C1CCCCC1; Nle = CCCC[C@H](N)C(=O)O; Nva = CCC[C@H](N)C(=O)O; Aoc = NCCCCCCCC(=O)O; Ahp = NCCCCCCC(=O)O; Ahx = NCCCCCC(=O)O; ξA = CC(N)C(=O)O

molecular target: T1, recombinant human vWF-A1 domain (Homo sapiens, UniProt P07359); experiment: Static human platelet adhesion to recombinant human vWF-A1 domain; format: cell-based; details: not given
T1 construct: whole blood drawn from voluntary donors; made in house; host or cells: E. coli (vWF-A1); washed platelets from human donor blood (GPIb, endogenous)
T1 sequence (P07359 17-652): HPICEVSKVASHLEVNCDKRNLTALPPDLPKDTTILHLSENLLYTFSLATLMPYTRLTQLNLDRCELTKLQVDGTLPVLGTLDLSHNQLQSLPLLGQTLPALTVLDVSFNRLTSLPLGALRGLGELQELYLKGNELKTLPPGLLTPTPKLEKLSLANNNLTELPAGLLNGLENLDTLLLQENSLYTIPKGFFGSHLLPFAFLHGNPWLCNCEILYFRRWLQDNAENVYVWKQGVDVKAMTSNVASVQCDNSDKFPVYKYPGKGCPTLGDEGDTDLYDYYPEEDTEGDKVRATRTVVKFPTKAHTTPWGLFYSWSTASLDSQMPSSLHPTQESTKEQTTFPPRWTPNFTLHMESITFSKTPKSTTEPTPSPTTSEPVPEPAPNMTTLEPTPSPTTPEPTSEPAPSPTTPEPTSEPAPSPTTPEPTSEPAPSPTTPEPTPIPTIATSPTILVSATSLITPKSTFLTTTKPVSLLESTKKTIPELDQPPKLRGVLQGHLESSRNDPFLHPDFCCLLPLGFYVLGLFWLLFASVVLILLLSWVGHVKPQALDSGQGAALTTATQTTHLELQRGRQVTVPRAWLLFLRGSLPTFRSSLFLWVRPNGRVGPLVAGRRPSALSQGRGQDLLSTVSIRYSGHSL
T1 sequence (P13224 26-206 partner): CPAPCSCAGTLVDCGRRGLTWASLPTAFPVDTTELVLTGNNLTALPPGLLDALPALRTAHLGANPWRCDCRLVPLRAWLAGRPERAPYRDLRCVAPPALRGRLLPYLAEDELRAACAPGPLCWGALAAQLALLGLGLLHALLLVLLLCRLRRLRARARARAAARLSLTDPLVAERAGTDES
T1 sequence (P14770 17-177 partner): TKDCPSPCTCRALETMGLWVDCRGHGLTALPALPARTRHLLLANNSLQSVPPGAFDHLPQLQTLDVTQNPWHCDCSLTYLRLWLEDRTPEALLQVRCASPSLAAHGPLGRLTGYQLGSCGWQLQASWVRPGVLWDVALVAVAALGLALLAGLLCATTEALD
Method: The activity of compounds of the formula I can be shown by procedures known in the art, for example by determining their inhibition of the binding of platelets to vWF A1 domain in an appropriate assay. To this end, assay plates can be coated with vWF-A1 domain. […] Then fluorescence-labeled thrombocytes are added and incubated for 90 minutes. In a complex washing procedure all non-bound thrombocytes are removed and the plates are measured, for example in a laser-based reader Acumen Explorer or a bulk reader like Spectramax. […] To assess the effect of compounds on the interaction of the GPIb complex on platelets with vWF, an assay system was used measuring binding of human platelets to recombinant human vWF-A1 domain under static conditions in the presence and absence of the compounds. […] Platelet rich plasma was carefully removed, transferred to a fresh container and spun down for 15 min at 120 g. Platelet rich plasma was carefully transferred again to fresh containers, PGE1 (0.5 μg/ml, Sigma) was added and the suspension was allowed to rest for 5 min. This was followed by another centrifugation step for 15 min at 360 g. The supernatant was discarded and the cell pellets were carefully resuspended in tyrode buffer (NaCl, 137 mM (Sigma S-3014); KCl, 2.7 mM (Sigma P-9541); NaHCO3,12 mM ([…] 31437); NaH2PO4×2H2O, 0.36 mM (Merck 6345); […] After 5 min of resting the suspension was spun down for 15 min at 300 g. The supernatant was discarded and the pellets were carefully resuspended in TBS buffer (Tris-HCl, 50 mM (Fluka 93371); NaCl, 120 mM (Sigma S-3014); KCl, 2.7 mM (Sigma P-9541); CaCl2, 0.05 mM (Sigma C-3306); MgCl2×6 H2O, 2 mM (Sigma M-2670); […] The platelet count was adjusted to 2×10^5 cells/μl, and the suspensions from individual donors were pooled at this stage. The platelets were allowed to rest for 30 min at room temperature before calcein AM (2.5 μM per 2×10^5 cells/μl (Molecular Probes C-3099)) was added. This was followed by 15 min incubation in the dark. Cells were diluted to 5×10^4 cells/μl and ReoPro (3 μg/ml (Centocor B. V., Leiden, N L)) was added, followed by a 10 min incubation period in the dark before adding the platelets to the assay plates. 96 well plates (Greiner hb, black, clear bottom, F, 655097) were coated with human recombinant vWF-A1 domain (1.5 μg/well, AA 475-706, expressed in E. coli) in Tris buffer (pH 7.4; Tris-HCl, 25 mM; NaCl, 150 mM) and incubated for 1 h at room temperature. After washing the wells 3× with TBS, blocking buffer (TBS with 5% BSA) was added followed by an incubation for 1 h. The wells were washed again 3× with TBS before 200 μl TBS were added to each well, preventing them from drying out. TBS was flicked out and serial dilutions of the test compound were added. The washed and calcein AM labeled thrombocytes were added to the wells (2.5×10^6 cells/well). Following an adhesion period of 1.5 h in the dark the wells were washed 3× with TBS. Measurement of fluorescence per well was performed in a SpectraMax M5 reader (Molecular Devices). From the raw data % inhibition and IC50 values were calculated.

SMILES	IC50 [nM]
CSCC[C@@H]1NC(=O)[C@H](CCCNC(=N)N)NC(=O)[C@H](CCC(=O)O)NC(=O)[C@H]([C@@H](C)O)NC(=O)Cc2cccc(c2)CNC(=O)[C@H](CC(C)C)NC(=O)[C@H](CC(N)=O)NC(=O)[C@H](Cc2c[nH]cn2)NC(=O)[C@H](CC(C)C)NC(=O)[C@H](C)NC1=O [Example 2, Cyclo[Leu-His-Asn-Leu-NH-X4-X3-X2-X1-CO-Thr-Glu-Arg-Met-Ala]] (cyclo(ALHNL[NHCH2(1,3-C6H4)CH2CO]TERM))	< 1000
CSCC[C@@H]1NC(=O)[C@H](CCCNC(=N)N)NC(=O)[C@H](CCC(=O)O)NC(=O)[C@H]([C@@H](C)O)NC(=O)Cc2ccc(cc2)CNC(=O)[C@H](CC(C)C)NC(=O)[C@H](CC(N)=O)NC(=O)[C@H](Cc2c[nH]cn2)NC(=O)[C@H](CC(C)C)NC(=O)[C@H](C)NC1=O [Example 3, Cyclo[Leu-His-Asn-Leu-NH-X4-X3-X2-X1-CO-Thr-Glu-Arg-Met-Ala]] (cyclo(ALHNL[X3]TERM))	1000 to 10000

same assay, conditions: washed calcein AM labeled human platelets, static conditions, 1.5 h adhesion; read-out: Activity (IC50 for inhibition of the binding of platelets to vWF A1 domain)

SMILES	IC50 [nM]
CSCC[C@@H]1NN[C@@H](CCCNC(=N)N)C(=O)C(=O)[C@H](CCC(=O)O)NC(=O)[C@H]([C@@H](C)O)NC(=O)CCCCCCNC(=O)[C@H](CC(C)C)NC(=O)[C@H](CC(N)=O)NC(=O)[C@H](Cc2cnc[nH]2)NC(=O)[C@H](CC(C)C)NC(=O)C(C)NC1=O (stereo partly drawn) [Example 1, Cyclo[Leu-His-Asn-Leu-NH—(CH2)6—CO-Thr-Glu-Arg-Met-Ala]] ([ξA]LHNL[Ahp]T; linker N-C via X1)	< 1000
CSCC[C@@H]1NC(=O)[C@H](CCCNC(=N)N)NC(=O)[C@H](CCC(=O)O)NC(=O)[C@H]([C@@H](C)O)NC(=O)[C@@H](NC(C)=O)CCCCNC(=O)[C@H](CC(C)C)NC(=O)[C@H](CC(N)=O)NC(=O)[C@H](Cc2c[nH]cn2)NC(=O)[C@H](CC(C)C)NC(=O)[C@H](C)NC1=O [Example 5, Cyclo[Leu-His-Asn-Leu-NH-X4-X3-X2-X1-CO-Thr-Glu-Arg-Met-Ala]] (Ac-KTERMALHNL; lactam 1-C)	1000 to 10000
CSCC[C@@H]1NC(=O)[C@H](CCCNC(=N)N)NC(=O)[C@H](CCC(=O)O)NC(=O)[C@H]([C@@H](C)O)NC(=O)CCCCCCCNC(=O)[C@H](CC(C)C)NC(=O)[C@H](CC(N)=O)NC(=O)[C@H](Cc2c[nH]cn2)NC(=O)[C@H](CC(C)C)NC(=O)[C@H](C)NC1=O [Example 6, Cyclo[Leu-His-Asn-Leu-NH—(CH2)7—CO-Thr-Glu-Arg-Met-Ala]] (cyclo(ALHNL[Aoc]TERM))	< 1000
CSCC[C@@H]1NC(=O)[C@H](CCCCN)NC(=O)[C@H](CCC(=O)O)NC(=O)[C@H]([C@@H](C)O)NC(=O)CCCCCCNC(=O)[C@H](CC(C)C)NC(=O)[C@H](CC(N)=O)NC(=O)[C@H](Cc2c[nH]cn2)NC(=O)[C@H](CC(C)C)NC(=O)[C@H](C)NC1=O [Example 7, Cyclo[Leu-His-Asn-Leu-NH—(CH2)6—CO-Thr-Glu-Lys-Met-Ala]] (cyclo(ALHNL[Ahp]TEKM))	1000 to 10000
CSCC[C@@H]1NC(=O)[C@H](CCCNC(=N)N)NC(=O)[C@H](CCC(=O)O)NC(=O)[C@H](CC(=O)O)NC(=O)CCCCCCNC(=O)[C@H](CC(C)C)NC(=O)[C@H](CC(N)=O)NC(=O)[C@H](Cc2c[nH]cn2)NC(=O)[C@H](CC(C)C)NC(=O)[C@H](C)NC1=O [Example 10, Cyclo[Leu-His-Asn-Leu-NH—(CH2)6—CO-Asp-Glu-Arg-Met-Ala]] (cyclo(ALHNL[Ahp]DERM))	1000 to 10000
CSCC[C@@H]1NC(=O)[C@H](CCCNC(=N)N)NC(=O)[C@H](CCC(=O)O)NC(=O)[C@H]([C@@H](C)O)NC(=O)CCCCCNC(=O)[C@H](CC(C)C)NC(=O)[C@H](CC(N)=O)NC(=O)[C@H](Cc2c[nH]cn2)NC(=O)[C@H](CC(C)C)NC(=O)[C@H](C)NC1=O [Example 11, Cyclo[Leu-His-Asn-Leu-NH—(CH2)5—CO-Thr-Glu-Arg-Met-Ala]] (cyclo(ALHNL[Ahx]TERM))	1000 to 10000
CCCC[C@@H]1NC(=O)[C@H](C)NC(=O)[C@H](CCSC)NC(=O)[C@H](CCCNC(=N)N)NC(=O)[C@H](CCC(=O)O)NC(=O)[C@H]([C@@H](C)O)NC(=O)CCCCCCNC(=O)[C@H](CC(C)C)NC(=O)[C@H](CC(N)=O)NC(=O)[C@H](Cc2c[nH]cn2)NC1=O [Example 13, Cyclo[Nle-His-Asn-Leu-NH—(CH2)6—CO-Thr-Glu-Arg-Met-Ala]] (cyclo(A[Nle]HNL[Ahp]TERM))	1000 to 10000
CC[C@H](C)[C@@H]1NC(=O)[C@H](C)NC(=O)[C@H](CCSC)NC(=O)[C@H](CCCNC(=N)N)NC(=O)[C@H](CCC(=O)O)NC(=O)[C@H]([C@@H](C)O)NC(=O)CCCCCCNC(=O)[C@H](CC(C)C)NC(=O)[C@H](CC(N)=O)NC(=O)[C@H](Cc2c[nH]cn2)NC1=O [Example 14, Cyclo[Ile-His-Asn-Leu-NH—(CH2)6—CO-Thr-Glu-Arg-Met-Ala]] (cyclo(AIHNL[Ahp]TERM))	1000 to 10000
CSCC[C@@H]1NC(=O)[C@H](CCCNC(=N)N)NC(=O)[C@H](CCC(=O)O)NC(=O)[C@H]([C@@H](C)O)NC(=O)CCCCCCNC(=O)[C@H](CC(C)C)NC(=O)[C@H](CC(N)=O)NC(=O)[C@H](Cc2c[nH]cn2)NC(=O)[C@H](CC2CCCCC2)NC(=O)[C@H](C)NC1=O [Example 16, Cyclo[Cha-His-Asn-Leu-NH—(CH2)6—CO-Thr-Glu-Arg-Met-Ala]] (cyclo([Cha]HNL[Ahp]TERMA))	< 1000
CC(C)C[C@@H]1NC(=O)[C@H](C)NC(=O)[C@H](CC2CCCCC2)NC(=O)[C@H](CCCNC(=N)N)NC(=O)[C@H](CCC(=O)O)NC(=O)[C@H]([C@@H](C)O)NC(=O)CCCCCCNC(=O)[C@H](CC(C)C)NC(=O)[C@H](CC(N)=O)NC(=O)[C@H](Cc2c[nH]cn2)NC1=O [Example 17, Cyclo[Leu-His-Asn-Leu-NH—(CH2)6—CO-Thr-Glu-Arg-Cha-Ala]] (cyclo(ALHNL[Ahp]TER[Cha]))	< 1000
CC[C@H](C)[C@@H]1NC(=O)[C@H](CCCNC(=N)N)NC(=O)[C@H](CCC(=O)O)NC(=O)[C@H]([C@@H](C)O)NC(=O)CCCCCCNC(=O)[C@H](CC(C)C)NC(=O)[C@H](CC(N)=O)NC(=O)[C@H](Cc2c[nH]cn2)NC(=O)[C@H](CC(C)C)NC(=O)[C@H](C)NC1=O [Example 18, Cyclo[Leu-His-Asn-Leu-NH—(CH2)6—CO-Thr-Glu-Arg-Ile-Ala]] (cyclo(ALHNL[Ahp]TERI))	1000 to 10000
CCC[C@@H]1NC(=O)[C@H](C)NC(=O)[C@H](CCSC)NC(=O)[C@H](CCCNC(=N)N)NC(=O)[C@H](CCC(=O)O)NC(=O)[C@H]([C@@H](C)O)NC(=O)CCCCCCNC(=O)[C@H](CC(C)C)NC(=O)[C@H](CC(N)=O)NC(=O)[C@H](Cc2c[nH]cn2)NC1=O [Example 19, Cyclo[Nva-His-Asn-Leu-NH—(CH2)6—CO-Thr-Glu-Arg-Met-Ala]] (cyclo(A[Nva]HNL[Ahp]TERM))	< 1000
CSCC[C@@H]1NC(=O)[C@H](CCCNC(=N)N)NC(=O)[C@H](CCC(=O)O)NC(=O)[C@H]([C@@H](C)O)NC(=O)CCCCCCNC(=O)[C@H](CC(C)C)NC(=O)[C@H](CC(N)=O)NC(=O)[C@H](Cc2c[nH]cn2)NC(=O)[C@H](C2CCCCC2)NC(=O)[C@H](C)NC1=O [Example 20, Cyclo[Chg-His-Asn-Leu-NH—(CH2)6—CO-Thr-Glu-Arg-Met-Ala]] (cyclo(A[Chg]HNL[Ahp]TERM))	1000 to 10000
CSCC[C@@H]1NC(=O)[C@H](CCCNC(=N)N)NC(=O)[C@H](CCC(=O)O)NC(=O)[C@H](Cc2c[nH]cn2)NC(=O)CCCCCCNC(=O)[C@H](CC(C)C)NC(=O)[C@H](CC(N)=O)NC(=O)[C@H](Cc2c[nH]cn2)NC(=O)[C@H](CC(C)C)NC(=O)[C@H](C)NC1=O [Example 21, Cyclo[Leu-His-Asn-Leu-NH—(CH2)6—CO-His-Glu-Arg-Met-Ala]] (cyclo(ALHNL[Ahp]HERM))	1000 to 10000
